Reference: paper PMC8596843, “Platinum Cyclooctadiene Complexes with Activity against Gram‐positive Bacteria” (Chemmedchem, 2021)

Columns and labels:
[1] = system: B. subtilis ATCC 6051 type strain; assay: MIC in the presence of human serum (serum reversal); format: cell-based, Bacillus subtilis; settings: 10% serum
Excerpt: (§1) To obtain some initial insight into the apparent disparity between in vitro and in vivo results, we repeated the MIC experiments against four selected Gram‐positive strains in the presence of 10 % or 50 % human serum (Table S3). Pt1 and Pt2 maintained some antibacterial activity against B. subtilis in the presence of 10 % serum, but a complete loss of activity was observed against MRSA and GISA (50 % serum), and VRE (10 % serum). […] Systemic administration is therefore unlikely to be a suitable administration route for this class of compounds unless an alternative formulation that can prevent serum binding (e. g. by lipid or nanoparticle encapsulation) can be found. […] Further in vivo studies should therefore focus on more suitable disease models. […]
(§2) Antibacterial minimum inhibitory concentration (MIC) assay
(§3) concentration. (in-house screening)
(§4) Bacto Laboratories 212322) at 37 °C overnight.
(§5) The resultant mid-log phase cultures were diluted
(§6) Gram-negative and Gram-positive bacteria, respectively.
(§7) final concentration range of 0.8 – 100 µM.
(§8) inhibitors as positive control. […]

[2] = system: S. aureus NRS 17 GISA; assay: as above; format: cell-based, Staphylococcus aureus; settings: 50% serum
Excerpt: as §1, §2, §3, §4, §5, §6, §7, §8

[3] = system: S. aureus ATCC 43300 MRSA; assay: as above; format: cell-based, Staphylococcus aureus; settings: 50% serum
Excerpt: as §1, §2, §3, §4, §5, §6, §7, §8

[4] = system: HEK-293 ATCC CRL-1573 human embryonic kidney cells; format: cell-based
Method: As part of the CO‐ADD screening, all compounds that show any activity against a microbial strain are evaluated for their cytotoxicity against human embryonic kidney cells (HEK‐293) and for haemolysis against human red blood cells. None of the compounds tested for cytotoxicity (Pt1‐9 and Pd1) caused any significant cell death up to concentrations of 100 μM. […] We have also observed higher IC50 values for the methylated complexes Pt3 and Pt4 against HeLa cells in previous work.[16] […]
(§9) inhibitors as positive control.
(§10) Tamoxifen (Sigma T5648) was used
(§11) as internal control on each plate.
in a Neubauer haemocytometer. […]

[5] = system: E. coli lpxC (non‐efficient lipid A production mutant); assay: MIC against E. coli membrane mutants; format: cell-based, Escherichia coli; settings: Table S2
Method: as §2, §3, §4, §5, §6, §7, §8

[6] = system: Staphylococcus aureus ATCC 25923, MSSA; assay: Antibacterial MIC assay, Gram-positive panel; format: cell-based; settings: Table S1 panel; n=4
Excerpt: (§12) Bis(dimethyl-η4)-((1Z,1'E,5Z,5'E)-(1,1'-bi(cyclooctadiene))diplatinum(II) (Pt14) Smiles: C1C=CCCC(=CC1)C1=CCCC=CCC1.C[Pt]C.C[Pt]C
(§13) InChIKey: PHIWIZAHOBWKFJ-HPCBIOCFSA-N
(§14) Link to selected data that was repeated to approve the identity of the compounds: https://dx.doi.org/10.14272/PHIWIZAHOBWKFJ-HPCBIOCFSA-N.1
(§15) ATCC strains were sourced from the American Type Culture Collection and NRS strains from NARSA (Network on Antimicrobial Resistance in Staphylococcus aureus) via BEI Resources (www.beiresources.org), with clinical MSSA and MRSA isolates from Prof Graeme Nimmo, Queensland […]
(§16) Health Central Pathology. […]
as §2
(§17) Compound Assay Plate Preparation: Compounds were dissolved in DMSO at 10mM (CO-ADD screening) or 4 mM (follow up screening) and were plated in a 2-fold dose response from 20 to 0.156 µM or 200 to 0.006 µM respectively, with a maximum of 0.5% or 1% DMSO, final in the assay […]
(§18) plated in a 2-fold dose response from 200 to 0.006 µM, with a maximum of 1 % DMSO, final in the assay concentration. (in-house screening)
(§19) For all the bacterial assays, each strain was cultured in Cation-adjusted Mueller Hinton broth (CAMHB; Bacto Laboratories 212322) at 37 °C overnight. A sample of each culture was then diluted 40-fold in fresh CAMHB and incubated at 37 °C for 1.5–3 h. The resultant mid-log phase cultures were diluted with CAMHB (CFU mL−1 measured by OD600), then added to each well of the compound-containing plates (384-well non-binding surface (NBS) plates; Corning CLS3640), giving a cell density of 5 × 10^5 CFU mL−1 and a total volume of 50 μL. Plates were covered and incubated at 37 °C for 18 h without shaking. Inhibition of bacterial growth was determined measuring absorbance at 600 nm (OD600), using media only as negative control and bacteria without inhibitors as positive control. MIC values were determined as the lowest concentration at which the growth was inhibited at ≥80%. Colistin sulfate (Sigma C4461) and vancomycin HCl (Sigma 861987) were used as internal controls on each plate for Gram-negative and Gram-positive bacteria, respectively. […]

[7] = system: Staphylococcus aureus VRS 1, VRSA (VanA); assay: Antibacterial MIC assay, Gram-positive panel; format: cell-based; settings: Table S1 panel; n=4
Excerpt: as §12, §13, §14, §15, §16, §2, §17, §18, §19

[8] = system: E. faecium ATCC 51559 MDR, VRE; assay: MIC in the presence of human serum (serum reversal); format: cell-based, Enterococcus faecium; settings: 10% serum
Excerpt: as §1, §2, §3, §4, §5, §6, §7, §8

[9] = system: Candida albicans ATCC 90028; assay: Antifungal MIC (CO-ADD screening); format: cell-based
Method: as §13
(§20) Health Central Pathology. Candida albicans (ATCC 90028, NCCLS 11), Cryptococcus neoformans
as §2, §3, §4

[10] = system: Cryptococcus neoformans H99 ATCC 208821; assay: Antifungal MIC (CO-ADD screening); format: cell-based
Method: as §13, §20, §2, §3, §4

[11] = system: Staphylococcus aureus ATCC 43300 (MRSA); assay: microbe, parasite or virus in culture; format: cell-based
Method: (§21) All compounds submitted to CO‐ADD are initially screened against five bacterial strains (Staphylococcus aureus (MRSA), E. coli, Klebsiella pneumoniae, Pseudomonas aeruginosa, Acinetobacter baumannii) and two fungal strains (Candida albicans, Cryptococcus neoformans) at a single concentration (32 μg/mL or 20 μM) performed as a high‐throughput primary screening.[[11], [17a]] Any compounds that show significant growth inhibition against any of the tested strains at this step are then evaluated in a dose‐response assay against these same strains. […]
(§22) Smiles: C1C=CCCC(=CC1)C1=CCCC=CCC1.C[Pt]C.C[Pt]C […]
as §15, §16, §2, §17, §18, §19

[12] = system: Bacillus subtilis ATCC 6051, type strain; assay: Antibacterial MIC assay, Gram-positive panel; format: cell-based; settings: Table S1 panel; n=2
Method: as §22, §15, §16, §2, §17, §18, §19

[13] = system: Enterococcus faecalis ATCC 29212, control strain; assay: Antibacterial MIC assay, Gram-positive panel; format: cell-based; settings: Table S1 panel; n=4
Method: as §22, §15, §16, §2, §17, §18, §19

[14] = system: Staphylococcus epidermidis NRS 60, VISE; assay: Antibacterial MIC assay, Gram-positive panel; format: cell-based; settings: Table S1 panel; n=4
Method: as §22, §15, §16, §2, §17, §18, §19

[15] = system: Enterococcus faecium ATCC 51559, MDR, VRE (VanA); assay: Antibacterial MIC assay, Gram-positive panel; format: cell-based; settings: Table S1 panel; n=2
Method: as §22, §15, §16, §2, §17, §18, §19

[16] = system: Enterococcus faecium ATCC 35667, type strain; assay: Antibacterial MIC assay, Gram-positive panel; format: cell-based; settings: Table S1 panel; n=4
Method: as §22, §15, §16, §2, §17, §18, §19

[17] = system: Staphylococcus aureus NRS 17, GISA; assay: Antibacterial MIC assay, Gram-positive panel; format: cell-based; settings: Table S1 panel; n=2
Method: as §22, §15, §16, §2, §17, §18, §19

[18] = system: Staphylococcus epidermidis ATCC 14990, type strain; assay: Antibacterial MIC assay, Gram-positive panel; format: cell-based; settings: Table S1 panel; n=4
Method: as §22, §15, §16, §2, §17, §18, §19

[19] = system: Enterococcus faecium Clinical Isolate, VRE (VanA); assay: Antibacterial MIC assay, Gram-positive panel; format: cell-based; settings: Table S1 panel; n=4
Method: as §22, §15, §16, §2, §17, §18, §19

[20] = system: human red blood cells; assay: Haemolysis assay; format: cell-based
Method: As part of the CO‐ADD screening, all compounds that show any activity against a microbial strain are evaluated for their cytotoxicity against human embryonic kidney cells (HEK‐293) and for haemolysis against human red blood cells. None of the compounds tested for cytotoxicity (Pt1‐9 and Pd1) caused any significant cell death up to concentrations of 100 μM. […] We have also observed higher IC50 values for the methylated complexes Pt3 and Pt4 against HeLa cells in previous work.[16]
as §5, §6, §7, §9, §10, §11
in a Neubauer haemocytometer.
incubated for 1 h at 37 °C, without shaking.
HC10 and HC50 (concentration at which 10%
for top, bottom and slope using Prism 8. […]

[21] = system: Klebsiella pneumoniae ATCC 700603 (ESBL SHV‐18)
Method: as §21, §22, §15, §16, §2, §17, §18, §19

[22] = system: Pseudomonas aeruginosa ATCC 27853; assay: Antibacterial MIC assay; format: cell-based; settings: CO‐ADD screening
Method: as §21, §22, §15, §16, §2, §17, §18, §19

[23] = system: Escherichia coli ATCC 25922; assay: Antibacterial MIC assay; format: cell-based; settings: CO‐ADD screening
Method: as §21, §22, §15, §16, §2, §17, §18, §19

[24] = system: Acinetobacter baumannii ATCC 19606; assay: Antibacterial MIC assay; format: cell-based; settings: CO‐ADD screening
Method: as §21, §22, §15, §16, §2, §17, §18, §19

`CC(C)C([O][Pt][Cl])/C1=C/CC/C=C\CC1` (centres unmarked) [Pt8] was tested, and the MIC in the presence of human serum [1] was 200 µM, the MIC in the presence of human serum [2] was greater than 200 µM and the MIC in the presence of human serum [3] was greater than 200 µM. The CC50 [4] was greater than 100 µM, the MIC E. coli lpxC [5] was greater than 200 µM and the MIC [6] was 25 µM. For the same compound, the MIC [7] was 12.5 µM, the MIC in the presence of human serum [8] was greater than 200 µM and the “MIC Ca” value [9] was 10 µM. For the same compound, the “MIC Cn” value [10] was 1.25 µM, the “MIC Sa” value ([11]; CO‐ADD screening) was greater than 20 µM and the MIC ([11]; Table S1 panel, n=2) was 3.12 µM. For the same compound, the MIC [12] was 50 µM, the MIC [13] was 100 µM and the MIC [14] was 25 µM. The MIC [15] was 50 µM, the MIC [16] was 100 µM and the MIC [17] was 50 µM. The MIC [18] was 6.25 µM, the MIC [19] was 100 µM and the “Haemolysis HC10” value ([20]; concentration inducing 10 % haemolysis) was greater than 100 µM. The “Haemolysis HC50” value ([20]; concentration inducing 50 % haemolysis) was greater than 100 µM, the “MIC Kp” value [21] was greater than 20 µM and the “MIC Pa” value [22] was greater than 20 µM. For the same compound, the “MIC Ec” value [23] was greater than 20 µM and the “MIC Ab” value [24] was greater than 20 µM.
